Test results from patent US20090105189A1, “METHODS AND COMPOSITIONS FOR AMELIORATING OR INHIBITING DECLINE IN MEMORY OR INTELLIGENCE OR IMPROVING SAME” (priority 2006, published 2009).

Experiments:
Type in all cases: cell-based
[1] = test system: PLC/DAG/IP3 signaling pathway; assay: PI turnover (inositol phosphate formation) in NGF-differentiated PC12 cells; conditions: for Formation of IP (PI turnover): 1 hour
Experimental: Analysis of PI turnover was performed as described by ([…] et al, J Neurochem 69: 704-12, 1997). Briefly, cells were labeled metabolically for 36 h with 1.25 microCurie (μCi)/dish of myo-[2-^3H]inositol (17-0 Curie/mmol; Amersham Biosciences) in serum-free MEM, washed twice with Hank's balanced salt solution (HBSS), and treated for 15 min with 10 mM lithium chloride in HBSS. Drugs were added in the presence of 10 mM lithium for 60 min at 37° C. Cells were lysed with ice-cold methanol, and lipids were removed by extraction with chloroform/methanol/water (2:2:1 by volume). Labeled water-soluble inositol phosphates were separated from free [^3H]inositol by ion-exchange chromatography, using AG 1-X8 columns (Bio-Rad), and 1M ammonium formate and 0.1M formic acid as eluent. Radioactivity was quantified by liquid scintillation spectrometry. P2Y2, P2Y4 and P2Y6 receptors activate the phospholipase C/diacylglycerol/inositol triphosphate (PLC/DAG/IP3) signaling pathway. […] These findings indicate that UTP promotes neurite outgrowth via P2Y receptors-mediated stimulation of the IP signaling pathway.

P2Y receptors = assay: P2Y receptor antagonism of uridine-enhanced NGF-stimulated neurite outgrowth in PC12 cells; conditions: PC12, 4 days, uridine 100 μM
Experimental: (§1) PC12 cells were sparsely plated on collagen-coated 60 mm culture dishes in MEM containing 1% fetal bovine serum. […] All treatments were performed 24 h after plating. At the end of the treatment period, images were obtained with a phase-contrast Zeiss Axioplan 2 microscope, using OpenLab software. Six digital images were captured for each dish, for a total of 18 to 24 images per treatment group. Approximately 300 cells were quantified for each treatment group for each experiment. Experiments were performed in triplicate. Quantification of neurites, including neurite branching and neurite length, was performed by one more researchers blinded to experimental groups. Neurite length was measured using the public domain NIH software “Image J.” Processes longer than the diameter of the cell body were counted as neurites. Only process-bearing cells were analyzed.

PC12 cells [2] = assay: Uptake of uridine into PC12 cells; conditions: P2Y receptor antagonists
PC12 cells [3] = assay: NGF-induced neurite outgrowth in PC12 cells; conditions: for Number of neurites per cell: PC12, with NGF
Experimental: PC12 cells were maintained in Minimal Essential Medium (MEM; Invitrogen, Carlsbad, Calif.) supplemented with 10% fetal bovine serum (FBS) at 37° C. Experimental incubations were for 2 or 4 days in medium containing 50 ng/ml mouse 2.5 S (2.5 subunit) NGF and 1% FBS, with or without test compounds. NGF and FBS were obtained from Invitrogen.
as §1

PC12 cells [4] = assay: Intracellular UTP and CTP levels in PC12 cells by HPLC; conditions: PC12, 2 days with NGF, vs NGF only
Experimental: (§2) Brain tissue or cells was dissolved in methanol/chloroform (1:2 vol/vol), centrifuged, and the aqueous phase was dried under vacuum, resuspended in 100-200 μL water and separated by HPLC on an ion-exchange column (Alltech Hypersil APS-2, 5 μM, 250×4.6 mm). CDP-choline was eluted with a linear gradient of NaH2PO4 buffers A (1.75 mM NaH2PO4, pH 2.9) and B (500 mM, pH 4.5), which allowed resolution of CDP-choline from closely co-eluting substances such as UMP over 40 min. The retention time for CDP-choline was 9.5 min. Individual nucleotide peaks were detected by UV absorption at […], and were identified by comparison with the positions of authentic standards, as well as by the addition of nucleotide standards to selected samples.
Levels of intracellular UTP and CTP were analyzed by HPLC as described for Example 5, except that 5 mM NaH2PO4, pH 2.65 was used as buffer A.

PC 12 cells = assay: Intracellular CDP-choline levels in PC12 cells treated with uridine; conditions: uridine treatment, after 50 minutes
Experimental: as §2

[5] = test system: P2Y2, P2Y4 and P2Y6 receptors; assay: P2Y receptor expression in NGF-differentiated PC12 cells; conditions: vs NGF alone
Experimental: Western blots utilized rabbit anti-P2Y2, anti-P2Y4 (both from Calbiochem); or rabbit anti-P2Y6 (Novus Biologicals, Littleton, Colo.). PC12 cells were treated as described above, except they were grown on 12 mm glass cover slips ([…] & Co., Vernon Hills, Ill.) coated with collagen. Proteins were visualized using immunofluorescence. […] For P2Y2 and P2Y4 visualization, control cultures were incubated with primary antibody plus a control antigen in order to ensure that the immuno-staining would be specific. Control antigen was not available for the P2Y6 receptor. Cells were then incubated in fluorochrome-conjugated secondary antibodies for 1 hour (goat anti-rabbit ALEXA 488 and goat anti-mouse ALEXA 568; Molecular Probes, Eugene, Oreg.) and mounted on glass slides with mounting media with or without DAPI (Vector Laboratories, Burlingame, Calif.). Control antigens provided with the primary antibodies were used to ensure that immuno-staining was specific. […] To determine whether these receptors participate in the mechanism by which extracellular UTP affects neurite outgrowth, it was first determined whether the receptors are expressed in PC 12 cells, and whether exposure to NGF alters their expression, PC 12 cells were treated for 0-7 days with NGF and levels of the receptors measured. […]

SMILES: Cc1nc(N=Nc2ccc(S(=O)(=O)O)cc2S(=O)(=O)O)c(COP(=O)(O)O)c(C=O)c1O [PPADS, pyridoxal-phosphate-6-azophenyl-2′,4′ disulfonic acid]
- Block of UTP-stimulated IP signaling ([1]; NGF-differentiated PC12, antagonist 100 μM): significantly (p<0.05) blocked
- Block of uridine enhancement of NGF-stimulated neurite outgrowth (P2Y receptors; antagonist 30 μM): significantly (p<0.05 or 0.001) blocked
- Inhibition of uptake of uridine into PC12 cells (PC12 cells [2]): None of the P2Y receptor antagonists inhibited

SMILES: Nc1c(S(=O)(=O)O)cc(Nc2ccc(Nc3nc(Cl)nc(Nc4cccc(S(=O)(=O)O)c4)n3)c(S(=O)(=O)O)c2)c2c1C(=O)c1ccccc1C2=O [RB-2, reactive blue 2]
- Block of uridine enhancement of NGF-stimulated neurite outgrowth (P2Y receptors; antagonist 10 μM): significantly (p<0.05 or 0.001) blocked
- Inhibition of uptake of uridine into PC12 cells (PC12 cells [2]): None of the P2Y receptor antagonists inhibited

SMILES: O=c1ccn([C@@H]2O[C@H](COP(=O)(O)OP(=O)(O)OP(=O)(O)O)[C@@H](O)[C@H]2O)c(=O)[nH]1 [UTP, uridine-5′-triphosphate]
- Neurite outgrowth (neurites per cell) (PC12 cells [3]; PC12, NGF, 10 and 50 μM, 4 days, vs NGF only): significantly (p<0.01) enhanced
- Formation of IP (PI turnover) ([1]; NGF-differentiated PC12, 100 μM): significantly increased
- Intracellular CTP levels (PC12 cells [4]; 100 μM): did not significantly affect
- Intracellular UTP levels (PC12 cells [4]; 100 μM): did not significantly affect

SMILES: Nc1ccn([C@@H]2O[C@H](CO)[C@@H](O)[C@H]2O)c(=O)n1 [cytidine]
- Neurite outgrowth (PC12 cells [3]; NGF-exposed PC12 cells, cytidine treatment): had no effect on neurite outgrowth
- Intracellular CTP levels (PC12 cells [4]; 50 μM): did not significantly affect
- Intracellular UTP levels (PC12 cells [4]; 50 μM): did not significantly affect

SMILES: Cc1ccc(C(=O)Nc2ccc(S(=O)(=O)O)c3cc(S(=O)(=O)O)cc(S(=O)(=O)O)c23)cc1NC(=O)c1cccc(NC(=O)Nc2cccc(C(=O)Nc3cc(C(=O)Nc4ccc(S(=O)(=O)O)c5cc(S(=O)(=O)O)cc(S(=O)(=O)O)c45)ccc3C)c2)c1 [suramin]
- Block of uridine enhancement of NGF-stimulated neurite outgrowth (P2Y receptors; antagonist 30 μM): significantly (p<0.05 or 0.001) blocked
- Inhibition of uptake of uridine into PC12 cells (PC12 cells [2]): None of the P2Y receptor antagonists inhibited

SMILES: O=c1ccn([C@@H]2O[C@H](CO)[C@@H](O)[C@H]2O)c(=O)[nH]1 [uridine]
- Intracellular CDP-choline levels (PC 12 cells): statistically significant increase
- Average neurite length (PC12 cells [3]; NGF-differentiated PC12 cells): did not significantly affect
- Number of neurite branch points per cell (PC12 cells [3]; PC12, NGF, 50 μM, 4 days, vs NGF only): significantly (p<0.01) increased
- Production of neurites (PC12 cells [3]; PC12, absence of NGF, 50 μM, 2 or 4 days): did not result in the production of neurites
- Number of neurites per cell (PC12 cells [3]; 2-day treatment or lower concentrations (10, 25 μM)): had no effect
- Number of neurites per cell (PC12 cells [3]; 50-200 μM, 4 days): significantly (p<0.01 or 0.001) enhanced
- Formation of IP (PI turnover) ([1]; NGF-differentiated PC12, 50 μM): significantly increased
- Intracellular CTP levels (PC12 cells [4]; 50 μM): significantly (p<0.05) increased
- Intracellular UTP levels (PC12 cells [4]; 50 μM): significantly (p<0.05) increased
- Expression of P2Y2, P2Y4 and P2Y6 receptors [5]: did not affect the expression of the receptors
